Laboratory results taken from patent US20220177418A1, “INHIBITORS OF THE N-TERMINAL DOMAIN OF THE ANDROGEN RECEPTOR” (The Regents of the University of California, priority 2019, published 2022).

Assays:
[1] = tested on: AR-null (AR-negative) prostate cancer cell lines; assay: MTT cell viability assay, AR-negative cells; assay type: cell-based; conditions: growth inhibition grade, 6 days
Procedure: (§1) FIGS. 3A-Q. Growth inhibitory effects of selected compounds. The indicated cells were exposed to the indicated compounds for 6 days; cell viability was measured by MTT assay, and specific reporters were assayed using literature conditions. Results were normalized to that of vehicle control. Experiments were performed in quadruplicate; results are means±s.d.
(§2) JN053 and JN138-JN156 were synthesized and tested in biochemical and cell biologic assays that have been described elsewhere. The JN compounds were first studied in cell viability assays (MTT assay) to determine the efficacy and specificity of the JN compounds for inhibition of prostate cancer cell lines.
(§3) The growth inhibitory effect of the JN compounds was assessed through the MTT assay, which assesses the total number of viable cells in vitro. These experiments were performed in AR-expressing (AR-positive) prostate cancer cell lines to assess on target effects and AR-null (AR-negative) prostate cancer cell lines to assess off target effects (i.e. specificity).

[2] = tested on: AR-expressing (AR-positive) prostate cancer cell lines; assay: MTT cell viability assay, AR-positive cells; assay type: cell-based; conditions: growth inhibition grade, 6 days
Procedure: as §1, §2, §3
AR-expressing (AR-pos): • LNCaP: full length AR • LNCaP AR: overexpression of full length AR • 22Rv1: full length AR and ARV7 • VCaP: full length AR and ARV7 • CWR22: full length AR and ARV7

| Structure (SMILES) | MTT AR Neg [1] | MTT AR-Pos [2] |
| --- | --- | --- |
| C=C(C)C(=O)NC(=O)/C(=C/c1ccc(C(F)(F)F)nc1)c1ccccc1 [JN153] | HIGH | HIGH |
| C#CCNC(=O)/C(=C/c1ccc(Cl)cc1)c1ccc(F)cc1F [JN144, (E)-3-(4-Chlorophenyl)-2-(2,4-difluorophenyl)-N-(prop-2-yn-1-yl)acrylamide] | LOW | LOW |
| O=C(/C=C/c1ccccc1)NC(=O)/C(=C/c1ccc(Cl)cc1)c1ccc(F)cc1F [JN155] | LOW | LOW |
| CCC1=C(C)CN(C(=O)/C(=C/c2ccc(Cl)cc2)c2ccccc2)C1=O [JN140, (E)-1-(3-(4-Chlorophenyl)-2-phenylacryloyl)-3-ethyl-4-methyl-1,5-dihydro-2H-pyrrol-2-one] | HIGH | HIGH |
| N#CC1(NC(=O)/C(=C/c2ccc(Cl)cc2)c2ccc(F)cc2F)CC1 [JN146] | LOW | LOW |
| C=C(Cc1ccccc1)C(=O)NC(=O)/C(=C/c1ccc(Cl)cc1)c1ccc(F)cc1F [JN150] | HIGH | HIGH |
| NS(=O)(=O)NC(=O)/C(=C/c1ccc(Cl)cc1)c1ccc(F)cc1F [JN145, (E)-3-(4-Chlorophenyl)-2-(2,4-difluorophenyl)-N-sulfamoylacrylamide] | LOW | LOW |
| C=C(C)C(=O)NCCCNC(=O)/C(=C/c1ccc(Cl)cc1)c1ccc(F)cc1F [JN156, (E)-3-(4-Chlorophenyl)-2-(2,4-difluorophenyl)-N-(3-methacrylamidopropyl)acrylamide] | LOW | LOW |
| C=CC(=O)NC(=O)/C(=C/c1ccc(Cl)cc1)c1ccc(F)cc1 [JN139] | LOW | LOW |
| O=C(/C=C/C(F)(F)F)NC(=O)/C(=C/c1ccc(Cl)cc1)c1ccc(F)cc1F [JN154] | LOW | HIGH |
| COC1=CC(=O)N(C(=O)/C(=C/c2ccc(Cl)cc2)c2ccc(F)cc2F)C1 [JN143] | LOW | LOW |
| C=C1CN=C(/C(=C/c2ccc(Cl)cc2)c2ccc(F)cc2F)O1 [JN149, (E)-2-(2-(4-Chlorophenyl)-1-(2,4-difluorophenyl)vinyl)-5-methylene-4,5-dihydrooxazole] | LOW | LOW |
| Cc1cnc(/C(=C/c2ccc(Cl)cc2)c2ccc(F)cc2F)o1 [JN148, (E)-2-(2-(4-Chlorophenyl)-1-(2,4-difluorophenyl)vinyl)-5-methyloxazole] | LOW | LOW |
| O=C(NC(=O)C1CC1)/C(=C/c1ccc(Cl)cc1)c1ccc(F)cc1F [JN147, (E)-N-(3-(4-Chlorophenyl)-2-(2,4-difluorophenyl)acryloyl)cyclopropanecarboxamide] | LOW | LOW |
| C=C(C)C(=O)OCCOC(=O)/C(=C/c1ccc(Cl)cc1)c1ccc(F)cc1F [JN151] | LOW | LOW |
| O=C1CCCN1C(=O)/C(=C/c1ccc(Cl)cc1)c1ccccc1 [JN141] | LOW | LOW |
| O=C(C1=CCN(Cc2ccccc2)CC1)/C(=C/c1ccc(Cl)cc1)c1ccccc1 [JN142, (E)-1-(1-Benzyl-1,2,3,6-tetrahydropyridin-4-yl)-3-(4-chlorophenyl)-2-phenylprop-2-en-1-one] | LOW | LOW |
